# Measured values reported in patent EP3409761B1, “CULTURE MEDIUM COMPOSITION, AND METHOD FOR CULTURING CELL OR TISSUE USING SAID COMPOSITION” (Nissan Chemical Corporation, priority 2012, dated 2014).
# Legend:
# [1] = tested on: human squamous carcinoma cell line A431; assay: Effect of Gefitinib, Elrotinib on proliferation of A431 cells stimulated with human HB-EGF; assay type: cell-based; conditions: DAG 0.015%
# Protocol: Each plate was cultured by being stood still in a CO2 incubator (37°C, 5% CO2). […] To the culture medium on days 4, 6 and 8 was added an ATP reagent (150 µL) (CellTiter-Glo (registered trade mark) Luminescent Cell Viability Assay, manufactured by Promega) to give a suspension, which was stood for about 10 min at room temperature, and the luminescence intensity (RLU value) was measured by FlexStation3 (manufactured by Molecular Devices), and the number of viable cells was measured by subtracting the luminescence value of the medium alone.
# HepG2 cells [2] = assay: Toxicity test of compound to hepatocytes: number of viable cells (Cell Titer-Glo); assay type: cell-based, human; conditions: DAG 0.015%, 1 day, no addition = 1
# Protocol: (§1) This aqueous solution was sterilized at 121°C for 20 min in an autoclave. On the other hand, HepG2 cells was mixed with DMEM medium (manufactured by WAKO) at 100000 cells/mL, and the cell suspension was dispensed to the wells of a 96-well flat bottom ultra low adhesion surface microplate (manufactured by Corning Incorporated, #3474) at 100 µL/well. […] Successively, this plate was cultured by being stood still in a CO2 incubator (37°C, 5% CO2) for 1 day.
# The culture medium (50 µL) after culturing for 1 day was dispensed to a 96-well titer plate (manufactured by Corning Incorporated), to this culture medium was added a Cell Titer-Glo (registered trade mark) reagent (manufactured by Promega, 50 µL), and the mixture was incubated at room temperature for 10 min. The luminescence intensity was measured by a multiplate reader (manufactured by Molecular Devices, FlexStation3) to measure the number of viable cells.
# HepG2 cells [3] = assay: Toxicity test of compound to hepatocytes: LDH activity measurement; assay type: cell-based, human; conditions: DAG 0.015%, 1 day
# Protocol: as §1
# To the culture medium (100 µL) after culturing for 1 day was added DMEM medium (manufactured by WAKO, 100 µL), and the plate was centrifuged by 4316.4 m·s^-2 (440G) for 15 min. The supernatant (100 µL) was dispensed to a 96-well titer plate (manufactured by Corning Incorporated), a reaction mixture (100 µL) in a cytotoxicity detection kit (manufactured by Roche Applied Science) was added, and the mixture was stood under shading at room temperature for 30 min. Successively, according to the protocol of the above-mentioned kit, the absorbance at 490 nm (reference; 600 nm) was measured by an absorbance spectrometer (manufactured by Molecular Devices, SPECTRA MAX 190), whereby the rate of the disordered cell, that is, cell disorder rate (%), was measured.
Compound,"% Control value of the RLU value (ATP measurement) ([1]; drug 0.1 µM, day 4)","% Control value of the RLU value (ATP measurement) ([1]; drug 0.1 µM, day 8)","% Control value of the RLU value (ATP measurement) ([1]; drug 0.3 µM, day 4)","% Control value of the RLU value (ATP measurement) ([1]; drug 0.3 µM, day 8)","% Control value of the RLU value (ATP measurement) ([1]; drug 1 µM, day 4)","% Control value of the RLU value (ATP measurement) ([1]; drug 1 µM, day 8)","% Control value of the RLU value (ATP measurement) ([1]; drug 3 µM, day 4)","% Control value of the RLU value (ATP measurement) ([1]; drug 3 µM, day 8)",relative cell number (HepG2 cells [2]; Troglitazone 20 µM),relative cell number (HepG2 cells [2]; Troglitazone 40 µM),relative cell number (HepG2 cells [2]; Troglitazone 60 µM),relative cell number (HepG2 cells [2]; Troglitazone 100 µM),cell disorder rate (HepG2 cells [3]; Troglitazone 20 µM),cell disorder rate (HepG2 cells [3]; Troglitazone 40 µM),cell disorder rate (HepG2 cells [3]; Troglitazone 60 µM),cell disorder rate (HepG2 cells [3]; Troglitazone 100 µM)
C#Cc1cccc(Nc2ncnc3cc(OCCOC)c(OCCOC)cc23)c1 [Elrotinib],88 % Control,56 % Control,89 % Control,27 % Control,21 % Control,4 % Control,4 % Control,0 % Control,–,–,–,–,–,–,–,–
Cc1c(C)c2c(c(C)c1O)CCC(C)(COc1ccc(CC3SC(=O)NC3=O)cc1)O2 (stereo not shown) [Troglitazone],–,–,–,–,–,–,–,–,0.68,0.50,0.48,0.39,2.68%,14.7%,22.5%,60.7%
